Experiments:
Details in all cases: incubation time: 72 h
BT-474 = assay: drug sensitivity score (DSS), CellTiter-Blue viability (DSS (AUC-based score)); higher = stronger viability inhibition; extreme values may be limits of the assay
Method: (§1)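 DSRT with the CellTiter-Blue (resazurin reduction) viability readout, fluorescence 560/590 nm, 72 h incubation. Plates were normalised to DMSO and benzethonium chloride controls. DSS is computed from the area under the fitted dose-response curve (5 or 9 concentrations).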

BT-549 = assay: as above
Method: as §1

CAL-120 = assay: as above
Method: as §1

CAL-148 [1] = assay: as above
Method: as §1

CAL-51 [2] = assay: as above
Method: as §1

CAL-85-1 [3] = assay: as above
Method: as §1

DU-4475 [4] = assay: as above
Method: as §1

HCC1143 = assay: as above
Method: as §1

HCC1599 = assay: as above
Method: as §1

HCC1937 = assay: as above
Method: as §1

HDQ-P1 [5] = assay: as above
Method: as §1

Hs578T = assay: as above
Method: as §1

MDA-MB-231 = assay: as above
Method: as §1

MDA-MB-436 = assay: as above
Method: as §1

MDA-MB-453 [6] = assay: as above
Method: as §1

MDA-MB-468 = assay: as above
Method: as §1

MFM-223 = assay: as above
Method: as §1

SK-BR-3 = assay: as above
Method: as §1

CAL-148 [7] = assay: normalised viability (% of control), CellTiter-Blue; higher = more viable cells (about 100 = DMSO control)
Method: (§2)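 DSRT, CellTiter-Blue viability, 72 h incubation. Signal is normalised to DMSO and benzethonium chloride controls. Value is the normalised response at dose 7.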

CAL-51 [8] = assay: as above
Method: as §2

CAL-85-1 [9] = assay: as above
Method: as §2

DU-4475 [10] = assay: as above
Method: as §2

HDQ-P1 [11] = assay: as above
Method: as §2

MDA-MB-453 [12] = assay: as above
Method: as §2

Row | Compound | drug sensitivity score (BT-474) | drug sensitivity score (BT-549) | drug sensitivity score (CAL-120) | drug sensitivity score (CAL-148 [1]) | drug sensitivity score (CAL-51 [2]) | drug sensitivity score (CAL-85-1 [3]) | drug sensitivity score (DU-4475 [4]) | drug sensitivity score (HCC1143) | drug sensitivity score (HCC1599) | drug sensitivity score (HCC1937) | drug sensitivity score (HDQ-P1 [5]) | drug sensitivity score (Hs578T) | drug sensitivity score (MDA-MB-231) | drug sensitivity score (MDA-MB-436) | drug sensitivity score (MDA-MB-453 [6]) | drug sensitivity score (MDA-MB-468) | drug sensitivity score (MFM-223) | drug sensitivity score (SK-BR-3) | normalised viability (CAL-148 [7]) [%] | normalised viability (CAL-51 [8]) [%] | normalised viability (CAL-85-1 [9]) [%] | normalised viability (DU-4475 [10]) [%] | normalised viability (HDQ-P1 [11]) [%] | normalised viability (MDA-MB-453 [12]) [%]
1 | CN1CCC(COc2cnc(-c3cccc(Cn4nc(-c5cccc(C#N)c5)ccc4=O)c3)nc2)CC1 | 3.92 | 6.21 | 3.44 | 2.07 | 3.38 | 3.23 | 2.66 | 0 | 0 | 4.45 | 2.71 | 0 | 5.87 | 5.04 | 4.88 | 5.78 | 2.41 | 6.8 | – | – | – | – | – | –
2 | CN1CCC(COc2cnc(-c3cccc(Cn4nc(-c5cccc(C#N)c5)ccc4=O)c3)nc2)CC1 (1000 nM) | – | – | – | – | – | – | – | – | – | – | – | – | – | – | – | – | – | – | 90.4 | 99.2 | 98.6 | 97.2 | 95 | 90.8
3 | CN(C)C/C=C/C(=O)Nc1cc2c(Nc3ccc(F)c(Cl)c3)ncnc2cc1O[C@H]1CCOC1 [Afatinib] (1000 nM) | – | – | – | – | – | – | – | – | – | – | – | – | – | – | – | – | – | – | 73.7 | 99.7 | 48.6 | 87.7 | 49.8 | 27.5
4 | CN1CC[C@H](c2c(O)cc(O)c3c(=O)cc(-c4ccccc4Cl)oc23)[C@H](O)C1 [Alvocidib] (1000 nM) | – | – | – | – | – | – | – | – | – | – | – | – | – | – | – | – | – | – | 10.3 | 4.57 | 1.95 | 3.18 | 10.8 | 9.17
5 | Nc1nc(Cl)nc2c1ncn2[C@H]1C[C@H](O)[C@@H](CO)O1 [Cladribine] (100 nM) | – | – | – | – | – | – | – | – | – | – | – | – | – | – | – | – | – | – | 96.9 | 111 | 84.2 | 81 | 95.5 | 98.4
6 | Nc1ccn([C@@H]2O[C@H](CO)[C@@H](O)[C@@H]2O)c(=O)n1 [Cytarabine] (1000 nM) | – | – | – | – | – | – | – | – | – | – | – | – | – | – | – | – | – | – | 44.6 | 29.8 | 88.5 | 39.7 | 82.2 | 62.4
7 | Cc1c2oc3c(C)ccc(C(=O)N[C@@H]4C(=O)N[C@H](C(C)C)C(=O)N5CCC[C@H]5C(=O)N(C)CC(=O)N(C)[C@@H](C(C)C)C(=O)O[C@@H]4C)c3nc-2c(C(=O)N[C@@H]2C(=O)N[C@H](C(C)C)C(=O)N3CCC[C@H]3C(=O)N(C)CC(=O)N(C)[C@@H](C(C)C)C(=O)O[C@@H]2C)c(N)c1=O [Dactinomycin] (100 nM) | – | – | – | – | – | – | – | – | – | – | – | – | – | – | – | – | – | – | 7.49 | 2.49 | 3.46 | 0.64 | 12.9 | 4.93
8 | COc1cccc2c1C(=O)c1c(O)c3c(c(O)c1C2=O)C[C@@](O)(C(=O)CO)C[C@@H]3O[C@H]1C[C@H](N)[C@H](O)[C@H](C)O1 [Doxorubicin] (100 nM) | – | – | – | – | – | – | – | – | – | – | – | – | – | – | – | – | – | – | 39.1 | 66.1 | 77.5 | 59.1 | 70.9 | 98.8
9 | Cc1ccc(F)c(NC(=O)Nc2ccc(-c3cccc4[nH]nc(N)c34)cc2)c1 [Linifanib] | 0 | 0 | 0 | 0 | 0 | 0 | 0 | 0 | 0 | 0 | 0 | 0 | 0 | 0 | 0 | 0 | 0 | 0 | – | – | – | – | – | –
10 | Cc1ccc(F)c(NC(=O)Nc2ccc(-c3cccc4[nH]nc(N)c34)cc2)c1 [Linifanib] (100 nM) | – | – | – | – | – | – | – | – | – | – | – | – | – | – | – | – | – | – | 103 | 108 | 87.4 | 103 | 113 | 100
11 | COc1cc(Nc2ncc3c(n2)-c2ccc(Cl)cc2C(c2c(F)cccc2OC)=NC3)ccc1C(=O)O [MLN8237] | 4.4 | 8.32 | 10.7 | 15 | 18.1 | 11.9 | 22.9 | 10.4 | 2.39 | 17.8 | 14.2 | 14.7 | 10.4 | 6.09 | 16.6 | 15.8 | 9.51 | 16.7 | – | – | – | – | – | –
12 | S=c1[nH]cnc2nc[nH]c12 [Mercaptopurine] (1000 nM) | – | – | – | – | – | – | – | – | – | – | – | – | – | – | – | – | – | – | 100 | 101 | 78.4 | 90.6 | 90.3 | 110
13 | Clc1ccc(C(c2ccccc2Cl)C(Cl)Cl)cc1 (centres undefined) [Mitotane] | 0 | 0 | 0 | 0 | 0 | 0 | 0 | 0 | 0 | 0 | 0 | 0 | 0 | 0 | 0 | 0 | 0 | 0 | – | – | – | – | – | –
14 | Clc1ccc(C(c2ccccc2Cl)C(Cl)Cl)cc1 (centres undefined) [Mitotane] (1000 nM) | – | – | – | – | – | – | – | – | – | – | – | – | – | – | – | – | – | – | 108 | 105 | 83.2 | 87.9 | 104 | 97.5
15 | COc1cccc2cc(-c3nc([C@H]4CC[C@H](C(=O)O)CC4)n4ncnc(N)c34)[nH]c12 [OSI-027] (1000 nM) | – | – | – | – | – | – | – | – | – | – | – | – | – | – | – | – | – | – | 65.1 | 61.8 | 61 | 68.1 | 39.3 | 37.5
16 | OC[C@H]1O[C@@H](n2cnc3c2N=CNC[C@H]3O)C[C@@H]1O [Pentostatin] | 0 | 0 | 0 | 0 | 0 | 0 | 0 | 0 | 0 | 0 | 0 | 0 | 0 | 0 | 0 | 0 | 0 | 0 | – | – | – | – | – | –
17 | OC[C@H]1O[C@@H](n2cnc3c2N=CNC[C@H]3O)C[C@@H]1O [Pentostatin] (1000 nM) | – | – | – | – | – | – | – | – | – | – | – | – | – | – | – | – | – | – | 123 | 89.9 | 108 | 102 | 85.4 | 98.2
18 | N#CC[C@H](C1CCCC1)n1cc(-c2ncnc3[nH]ccc23)cn1 [Ruxolitinib] (1000 nM) | – | – | – | – | – | – | – | – | – | – | – | – | – | – | – | – | – | – | 101 | 90 | 110 | 112 | 91.1 | 92.4
19 | C=CC[C@@H]1/C=C(\C)C[C@H](C)C[C@H](OC)[C@H]2O[C@@](O)(C(=O)C(=O)N3CCCC[C@H]3C(=O)O[C@H](/C(C)=C/[C@@H]3CC[C@@H](O)[C@H](OC)C3)[C@H](C)[C@@H](O)CC1=O)[C@H](C)C[C@@H]2OC [Tacrolimus] (1000 nM) | – | – | – | – | – | – | – | – | – | – | – | – | – | – | – | – | – | – | 103 | 96.6 | 95.4 | 115 | 111 | 108
20 | C=CCNC1=C2C[C@@H](C)C[C@H](OC)[C@H](O)[C@@H](C)/C=C(\C)[C@H](OC(N)=O)[C@@H](OC)/C=C\C=C(/C)C(=O)NC(=CC1=O)C2=O [Tanespimycin] (1000 nM) | – | – | – | – | – | – | – | – | – | – | – | – | – | – | – | – | – | – | 20.8 | 24.2 | 24.7 | 0.99 | 22.9 | 7.14
21 | CO[C@H]1C[C@@H]2CC[C@@H](C)[C@@](O)(O2)C(=O)C(=O)N2CCCC[C@H]2C(=O)O[C@H]([C@H](C)C[C@@H]2CC[C@@H](OC(=O)C(C)(CO)CO)[C@H](OC)C2)CC(=O)[C@H](C)/C=C(\C)[C@@H](O)[C@@H](OC)C(=O)[C@H](C)C[C@H](C)/C=C/C=C/C=C/1C [Temsirolimus] (100 nM) | – | – | – | – | – | – | – | – | – | – | – | – | – | – | – | – | – | – | 37 | 37.9 | 53.2 | 50.6 | 71.8 | 24.9
22 | C[C@]1(c2nc3c(C(N)=O)cccc3[nH]2)CCCN1 [Veliparib] (1000 nM) | – | – | – | – | – | – | – | – | – | – | – | – | – | – | – | – | – | – | 106 | 107 | 73.3 | 82.1 | 97.1 | 84.4
23 | CC[C@]1(O)C[C@@H]2CN(CCc3c([nH]c4ccccc34)[C@@](C(=O)OC)(c3cc4c(cc3OC)N(C)[C@H]3[C@@](O)(C(=O)OC)[C@H](OC(C)=O)[C@]5(CC)C=CCN6CC[C@]43[C@@H]65)C2)C1 [Vinblastine] (100 nM) | – | – | – | – | – | – | – | – | – | – | – | – | – | – | – | – | – | – | 20.1 | 23.3 | 30.2 | 34.8 | 37.6 | 23.8
24 | CS(=O)(=O)c1ccc(C(=O)Nc2ccc(Cl)c(-c3ccccn3)c2)c(Cl)c1 [Vismodegib] (1000 nM) | – | – | – | – | – | – | – | – | – | – | – | – | – | – | – | – | – | – | 98.3 | 99.1 | 97.1 | 114 | 92.4 | 98.3
